For assay [1], the target named is T1, human cannabis CB1 receptor (Homo sapiens, UniProt P21554).
T1 construct: expressed in transfected cells; host or cells: human embryonic kidney (HEK) cells, Semliki Forest Virus system, membrane preparation
As to the kind of experiment: Affinity for cannabinoid CB1 receptors, [3H]-CP-55,940 radioligand binding on HEK cell membranes. As to the method: The affinity of the compounds of the invention for cannabinoid CB1 receptors was determined using membrane preparations of human embryonic kidney (HEK) cells in which the human cannabis CB1 receptor is transiently transfected using the Semliki Forest Virus system in conjunction with [3H]-CP-55,940 as radioligand. After incubation of a freshly prepared cell membrane preparation with the [3H]-ligand, with or without addition of compounds of the invention, separation of bound and free ligand was performed by filtration over glassfiber filters. Radioactivity on the filter was measured by liquid scintillation counting.
The compounds of formula (I) show an excellent affinity for the CB1 receptor, determined with the experimental conditions described in Devane et. al. Mol. Pharmacol. 34 (1988) 605-613.

The conditions of assay [2]: wild-type versus CB1 knockout mice; cited from earlier work.
The conditions of assay [3]: 10 and 20 mg daily; cited from earlier work.
For assay [4] the following is noted: several phase III studies; cited from earlier work.
For assay [5] the following is noted: phase III trial STRATUS-US; cited from earlier work.
[6] abbreviates: [3H]-CP-55,940 as radioligand, membranes of HEK cells transfected with human CB1 receptor, read-out: Ki.

Where two headings read alike, the source gives them in different places.

T1 sequence (P21554 whole entry): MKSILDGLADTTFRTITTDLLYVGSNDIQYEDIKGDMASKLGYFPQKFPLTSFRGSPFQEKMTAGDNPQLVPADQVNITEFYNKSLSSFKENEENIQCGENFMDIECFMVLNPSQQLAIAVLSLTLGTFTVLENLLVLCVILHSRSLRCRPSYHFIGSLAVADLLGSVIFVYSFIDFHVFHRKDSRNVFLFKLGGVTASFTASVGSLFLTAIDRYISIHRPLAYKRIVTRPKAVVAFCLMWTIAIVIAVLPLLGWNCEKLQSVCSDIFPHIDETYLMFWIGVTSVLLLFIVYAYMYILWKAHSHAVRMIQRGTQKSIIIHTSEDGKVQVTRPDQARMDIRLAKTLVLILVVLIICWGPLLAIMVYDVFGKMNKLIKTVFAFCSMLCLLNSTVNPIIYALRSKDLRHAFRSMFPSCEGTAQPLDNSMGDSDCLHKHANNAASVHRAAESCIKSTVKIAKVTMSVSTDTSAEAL

In the case of `CN(c1ncc(C(=O)N[C@@H]2CCCC[C@H]2O)nc1-c1ccc(OC(F)(F)F)cc1)C1CC1` [Example 21, 5-(Cyclopropyl-methyl-amino)-6-(4-trifluoromethoxy-phenyl)-pyrazine-2-carboxylic acid ((1R,2R)-2-hydroxy-cyclohexyl)-amide], the inhibition constant Ki in assay [1] (setting [6]) was 35.4 nM. Consider `COCCOc1ncc(C(=O)NC[C@](C)(O)C2CC2)nc1-c1ccc(Cl)cc1` [Example 27, 6-(4-Chloro-phenyl)-5-(2-methoxy-ethoxy)-pyrazine-2-carboxylic acid ((R)-2-cyclopropyl-2-hydroxy-propyl)-amide], for which, in assay [1], the inhibitory constant (Ki) was 47.5 nM.

In the case of `C[C@](O)(CNC(=O)c1cnc(OCc2ncccn2)c(-c2ccc(F)cc2)n1)C1CC1` [Example 69, 6-(4-Fluoro-phenyl)-5-(pyrimidin-2-ylmethoxy)-pyrazine-2-carboxylic acid ((R)-2-cyclopropyl-2-hydroxy-propyl)-amide], in assay [1] (setting [6]), the Ki is 12.2 nM.

Turning to `Cc1c(C(=O)NN2CCCCC2)nn(-c2ccc(Cl)cc2Cl)c1-c1ccc(Cl)cc1` [SR 141716, Rimonabant], the food intake result in assay [2] is listed as “reduces food intake in wild-type but not knockout mice”. The “body weight compared to placebo” value in assay [3] is recorded as “significantly reduced body weight”. Besides, in assay [4], the “body weight, waist circumference and metabolic parameters (plasma HDL, triglycerides and insulin sensitivity)” value was “reduced body weight, waist circumference and improved metabolic parameters”. The “efficacy for smoking cessation” value in assay [5] is recorded as “has shown efficacy”.

The values above are taken from patent US7629346B2, “Pyrazinecarboxamide derivatives as CB1 antagonists” (Hoffmann-La Roche Inc., priority 2006, dated 2009).
